pIC50: −log10 of the molar value.
Assays:
recombinant human HDAC1 = recombinant human HDAC1 (Homo sapiens (Human), UniProt Q13547); experiment: Enzymatic screening, HDAC1 inhibition (fluorogenic FdL_G substrate); assay type: biochemical
Procedure, shortened: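 Recombinant human HDAC1 inhibition was measured fluorometrically using the FLUOR DE LYS-Green (FdL_G) substrate. Compounds at 8 doses (1% DMSO final) in Tris-HCl pH 8 buffer with NaCl, Tween-20 and glycerol were preincubated in triplicate with enzyme and 1 mg/mL BSA, then given substrate. Developer I plus 2 μM TSA was added, and fluorescence read after 25 minutes in the dark.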

recombinant human HDAC6 = recombinant human HDAC6 (Homo sapiens (Human), UniProt Q9UBN7); experiment: Enzymatic screening, HDAC6 inhibition (fluorogenic FdL_G substrate); assay type: biochemical
recombinant human HDAC6, sequence (Q9UBN7 whole entry): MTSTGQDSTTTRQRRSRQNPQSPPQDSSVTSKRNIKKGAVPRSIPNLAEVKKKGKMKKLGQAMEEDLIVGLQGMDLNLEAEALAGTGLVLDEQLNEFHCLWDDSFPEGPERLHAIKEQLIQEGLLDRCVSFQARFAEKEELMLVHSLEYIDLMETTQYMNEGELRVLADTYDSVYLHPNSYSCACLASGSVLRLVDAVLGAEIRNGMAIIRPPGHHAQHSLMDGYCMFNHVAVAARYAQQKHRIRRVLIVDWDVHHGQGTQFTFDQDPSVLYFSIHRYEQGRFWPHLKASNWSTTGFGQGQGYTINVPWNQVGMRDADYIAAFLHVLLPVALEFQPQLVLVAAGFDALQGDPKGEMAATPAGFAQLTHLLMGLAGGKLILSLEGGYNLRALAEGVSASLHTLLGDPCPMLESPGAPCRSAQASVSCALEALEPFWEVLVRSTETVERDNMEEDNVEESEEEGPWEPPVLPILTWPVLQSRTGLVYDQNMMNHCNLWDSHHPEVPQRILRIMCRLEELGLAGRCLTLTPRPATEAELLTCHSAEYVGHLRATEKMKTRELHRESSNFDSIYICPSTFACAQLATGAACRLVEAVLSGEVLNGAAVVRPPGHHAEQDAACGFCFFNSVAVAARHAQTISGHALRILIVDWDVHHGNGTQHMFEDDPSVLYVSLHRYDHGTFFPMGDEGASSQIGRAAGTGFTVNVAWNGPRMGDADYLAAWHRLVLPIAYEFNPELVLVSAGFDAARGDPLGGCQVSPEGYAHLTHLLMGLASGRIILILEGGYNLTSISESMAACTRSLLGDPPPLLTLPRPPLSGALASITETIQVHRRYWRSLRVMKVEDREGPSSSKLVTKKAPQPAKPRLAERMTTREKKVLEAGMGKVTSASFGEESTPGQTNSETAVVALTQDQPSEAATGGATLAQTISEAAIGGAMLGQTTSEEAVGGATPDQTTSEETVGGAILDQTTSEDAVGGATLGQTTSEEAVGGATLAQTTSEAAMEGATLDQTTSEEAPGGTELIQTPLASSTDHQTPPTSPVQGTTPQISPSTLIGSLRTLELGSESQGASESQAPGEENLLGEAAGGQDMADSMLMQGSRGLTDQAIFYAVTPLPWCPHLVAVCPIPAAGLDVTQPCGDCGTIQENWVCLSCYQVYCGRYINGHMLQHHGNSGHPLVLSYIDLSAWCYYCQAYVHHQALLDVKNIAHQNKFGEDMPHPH
Procedure, shortened: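 Enzyme was preincubated with compound (8 doses, triplicate, 1% DMSO) in 25 mM Tris-HCl pH 8, 130 mM NaCl, 0.05% Tween-20, 10% glycerol, with BSA. A FLUOR DE LYS-Green substrate was then added, and fluorescence was read after developer plus 2 μM TSA.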

recombinant human HDAC1, sequence (Q13547 whole entry): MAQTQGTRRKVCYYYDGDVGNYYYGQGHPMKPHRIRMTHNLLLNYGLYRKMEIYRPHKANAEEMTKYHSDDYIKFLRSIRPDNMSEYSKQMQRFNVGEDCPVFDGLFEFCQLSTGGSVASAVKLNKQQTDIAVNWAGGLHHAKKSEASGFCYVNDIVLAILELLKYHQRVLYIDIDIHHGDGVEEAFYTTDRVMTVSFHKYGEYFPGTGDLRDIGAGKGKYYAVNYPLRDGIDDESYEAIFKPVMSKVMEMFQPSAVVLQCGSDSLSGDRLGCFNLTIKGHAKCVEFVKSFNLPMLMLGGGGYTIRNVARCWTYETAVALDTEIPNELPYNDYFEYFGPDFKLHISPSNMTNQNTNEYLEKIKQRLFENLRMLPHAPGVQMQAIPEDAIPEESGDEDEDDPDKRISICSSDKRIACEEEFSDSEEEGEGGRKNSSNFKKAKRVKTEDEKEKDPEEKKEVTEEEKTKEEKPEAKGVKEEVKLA

Structure (SMILES) | pIC50 (recombinant human HDAC1) | pIC50 (recombinant human HDAC6)
NCc1ccc(-c2cn(Cc3ccc(-c4nnc(C(F)F)o4)cc3)nn2)cn1 [compound 155, (5-(1-(4-(5-(difluoromethyl)-1,3,4-oxadiazol-2-yl)benzyl)-1H-1,2,3-triazol-4-yl)pyridin-2-yl)methanamine] | < 3.70 | 7.16
Nc1nc2ccc(-c3cn(Cc4ccc(-c5nnc(C(F)F)o5)cc4)cn3)cc2s1 [compound 306, 6-[1-[[4-[5-(difluoromethyl)-1,3,4-oxadiazol-2-yl]phenyl]methyl]imidazol-4-yl]-1,3-benzothiazol-2-amine] | < 3.00 | 7.49
Nc1nc2ccc(-c3cn(Cc4ccc(-c5nnc(C(F)F)o5)c(F)c4)nn3)cc2s1 [compound 347, 6-[1-[[4-[5-(difluoromethyl)-1,3,4-oxadiazol-2-yl]-3-fluorophenyl]methyl]triazol-4-yl]-1,3-benzothiazol-2-amine] | < 3.00 | 7.57
O=C(Nc1cc(-c2nnn(Cc3ccc(-c4nnc(C(F)F)o4)cc3)n2)ccc1O)N1CCOCC1 [compound 25, N-(5-(2-(4-(5-(difluoromethyl)-1,3,4-oxadiazol-2-yl)benzyl)-2H-tetrazol-5-yl)-2-hydroxyphenyl)morpholine-4-carboxamide] | < 3.70 | 8.15
FC(F)c1nnc(-c2ccc(Cn3nnc(-c4cncc5ccccc45)n3)cc2)o1 [compound 118, 2-(difluoromethyl)-5-(4-((5-(isoquinolin-4-yl)-2H-tetrazol-2-yl)methyl)phenyl)-1,3,4-oxadiazole] | < 3.70 | 7.36
Nc1ccc(-c2cn(C(CC3CCC3)c3ccc(-c4nnc(C(F)F)o4)cc3)nn2)cn1 (stereo not drawn) [Compd. 242, 5-(1-(2-cyclobutyl-1-(4-(5-(difluoromethyl)-1,3,4-oxadiazol-2-yl)phenyl)ethyl)-1H-1,2,3-triazol-4-yl)pyridin-2-amine] | < 3.70 | 6.60
FC(F)c1nnc(-c2ccc(Cn3nnc(C4(c5ccccc5)CC4)n3)cc2)o1 [compound 256, 2-(difluoromethyl)-5-(4-((5-(1-phenylcyclopropyl)-2H-tetrazol-2-yl)methyl)phenyl)-1,3,4-oxadiazole] | < 3.70 | 6.41
CC(C)(C)OC(=O)N1CCC2(CC1)Nc1ccc(-c3cn(Cc4ccc(-c5nnc(C(F)F)o5)cc4)nn3)cc1NC2=O [compound 279, tert-butyl 6′-(1-(4-(5-(difluoromethyl)-1,3,4-oxadiazol-2-yl)benzyl)-1H-1,2,3-triazol-4-yl)-3′-oxo-3′,4′-dihydro-1′H-spiro[piperidine-4,2′-quinoxaline]-1-carboxylate] | < 3.70 | 6.54

Continued, values first:

pIC50 (recombinant human HDAC1) | pIC50 (recombinant human HDAC6) | Structure (SMILES)
< 3.00 | 7.38 | Fc1cc(-c2nnc(C(F)F)o2)cnc1Cn1nnc(-c2cccc(-c3nc4c([nH]3)CCNC4)c2)n1 [compound 353, 2-(difluoromethyl)-5-[5-fluoro-6-[[5-[3-(4,5,6,7-tetrahydro-1H-imidazo[4,5-c]pyridin-2-yl)phenyl]tetrazol-2-yl]methyl]pyridin-3-yl]-1,3,4-oxadiazole]
3.24 | 7.43 | Fc1cc(Cn2nnc(-c3cccc(-c4nc5c([nH]4)CNCC5)c3)n2)ccc1-c1nnc(C(F)F)o1 [compound 364, 2-(difluoromethyl)-5-[2-fluoro-4-[[5-[3-(4,5,6,7-tetrahydro-3H-imidazo[4,5-c]pyridin-2-yl)phenyl]tetrazol-2-yl]methyl]phenyl]-1,3,4-oxadiazole]
3.00 | 6.30 | CNc1ncc2cc(-c3cn(Cc4ccc(-c5nnc(C(F)F)o5)c(F)c4)nn3)ccc2n1 [compound 393, 6-[1-({4-[5-(difluoromethyl)-1,3,4-oxadiazol-2-yl]-3-fluorophenyl}methyl)-1H-1,2,3-triazol-4-yl]-N-methylquinazolin-2-amine]
3.00 | 6.46 | FC(F)c1nnc(-c2ccc(Cn3nnc(-c4ccc5cnccc5c4)n3)c(Cl)c2)o1 [compound 426, 2-(3-chloro-4-((5-(isoquinolin-6-yl)-2H-tetrazol-2-yl)methyl)phenyl)-5-(difluoromethyl)-1,3,4-oxadiazole]

— patent publication US20230286970A1, “NOVEL OXADIAZOLE-BASED SELECTIVE HDAC6 INHIBITORS” (ITALFARMACO S.P.A., priority 2020, published 2023)
